The source of these data is PMC4938916, “Effect of mutations to amino acid A301 and F361 in thermostability and catalytic activity of the β-galactosidase from Bacillus subtilis VTCC-DVN-12-01” (BMC Biochemistry, 2016).

Holding throughout (experiment): o-nitrophenol release at […] nm, Lineweaver-Burk
Holding throughout (assay type): biochemical
Holding throughout (conditions): 100 mM buffer Z (1 mM MgSO4, 50 mM 2-mercaptoethanol), pH 7.0, 55 °C; apparent

In test [1] the target is T1, β-galactosidase LacA (LacA-WT) (Bacillus subtilis, UniProt O07012, A286V, form not given).
T1 construct: gene ganA; full lacA gene (2061 bp) in pET22b(+), C-terminal 6xHis tag kept, E. coli JM109(DE3), Ni ProBond purified, 70 kDa, GH42
T1 sequence (O07012 whole entry A286V, form open): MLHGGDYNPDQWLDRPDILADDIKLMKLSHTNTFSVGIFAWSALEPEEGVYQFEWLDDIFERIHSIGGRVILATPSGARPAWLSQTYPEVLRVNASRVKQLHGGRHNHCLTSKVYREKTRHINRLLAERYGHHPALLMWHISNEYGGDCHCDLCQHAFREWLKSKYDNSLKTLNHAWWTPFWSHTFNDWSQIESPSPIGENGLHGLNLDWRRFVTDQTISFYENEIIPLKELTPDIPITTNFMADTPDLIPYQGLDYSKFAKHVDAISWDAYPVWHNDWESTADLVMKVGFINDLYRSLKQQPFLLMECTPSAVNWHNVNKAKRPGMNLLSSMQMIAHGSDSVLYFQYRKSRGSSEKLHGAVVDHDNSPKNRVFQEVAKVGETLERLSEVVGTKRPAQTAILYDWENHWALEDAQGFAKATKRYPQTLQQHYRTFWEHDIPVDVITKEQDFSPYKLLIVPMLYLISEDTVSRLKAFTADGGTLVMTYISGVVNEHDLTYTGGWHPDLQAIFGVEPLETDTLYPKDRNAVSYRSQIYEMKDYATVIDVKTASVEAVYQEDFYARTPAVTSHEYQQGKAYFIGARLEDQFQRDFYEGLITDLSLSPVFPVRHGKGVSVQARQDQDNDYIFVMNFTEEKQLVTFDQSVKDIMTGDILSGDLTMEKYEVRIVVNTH

Test [2] has as its target T2, β-galactosidase LacA (LacA-WT) (Bacillus subtilis, UniProt O07012).
T2 construct: gene ganA; full lacA gene (2061 bp) in pET22b(+), C-terminal 6xHis tag kept, E. coli JM109(DE3), Ni ProBond purified, 70 kDa, GH42

Test [3] has as its target T3, β-galactosidase LacA (LacA-WT) (Bacillus subtilis, UniProt O07012, F346Y, form not given).
T3 construct: gene ganA; full lacA gene (2061 bp) in pET22b(+), C-terminal 6xHis tag kept, E. coli JM109(DE3), Ni ProBond purified, 70 kDa, GH42

T3 sequence (O07012 whole entry F346Y, form open): as the sequence (O07012 whole entry A286V, form open) above, with V286A, F346Y counted along it
T2 sequence (O07012 whole entry): as the sequence (O07012 whole entry A286V, form open) above, with V286A counted along it

In the case of `O=[N+]([O-])c1ccccc1O[C@@H]1O[C@H](CO)[C@H](O)[C@H](O)[C@H]1O` [oNPG, Ortho-nitrophenyl-β-D-galactopyranoside], the values for the Michaelis constant (Km) in test [1], in test [2] and in test [3] were 5.57 ± 0.56 mM, 9.28 ± 0.72 mM and 8.02 ± 0.27 mM, respectively.
